From US11352421B2, “Treatment for adverse immune reaction to metal implant debris” (RUSH UNIVERSITY MEDICAL CENTER, priority 2018, dated 2022) come the findings set out here.

The test system of data set [1] is IL-17A/F. The data set can be described thus: Sandwich ELISA for human IL-17A/F in supernatants of metal-challenged PBMCs. The format is cell-based. Particulars: metal-reactive individuals' lymphocytes; supernatants harvested on day 6. Here is the method:
(§1) Isolated human PBMCs were co-incubated in vitro with either MCC950, a NLRP3 inflammasome inhibitor (InvivoGen), Caspase-1 inhibitor (Caspase-1/ICE inhibitor Z-WEHD-FMK) or recombinant human IL-1Ra (R&D Systems. Inc., Minneapolis, Minn.) for metal-LTT assay or cytokine analysis according to manufacturer's protocol and working concentration. Caicedo et al., J. Biomed. Mater. Res. A 93(4):1312-1321 (2010).
(§2) Isolated human PBMCs were co-incubated in vitro with IL-17A monoclonal antibody (eBio64CAP17; ThermoFisher Scientific) for neutralization of IL-17A bioactivity for metal-lymphocyte transformation test assay or cytokine analysis according to the manufacturer's protocol and concentration.
(§3) Sandwich ELISAs for mouse IL-17A/F and IFN-γ (R&D Systems Inc., Minneapolis, Minn.) were used to detect cytokine production in both non-sensitized and metal-sensitized female mouse spleens and isolated CD4+ T-cells that were harvested 48 h post paw re-challenge to metal allergen (day 14). Supernatants from control and metal-challenged murine cells were collected after 4 days. […] All samples for ELISA were performed in triplicate in 96 well plates and were stored at −80° C. until analysis, following manufacturer's protocol.
For orientation: An ELISA detects its analyte on a solid surface through an enzyme-linked reagent.

The subject of data set [2] is IFN-γ. The experiment in a line: Sandwich ELISA for human IFN-γ in supernatants of metal-challenged PBMCs. Particulars: metal-reactive individuals' lymphocytes; supernatants harvested on day 6. It is filed as cell-based. Here is the method:
as §1, §2, §3

The subject of data set [3] is human peripheral blood mononuclear cells. The experiment in a line: Metal-LTT of human lymphocytes (PBMCs): proliferation by 3H-thymidine incorporation with inflammasome or IL-17A inhibitors. It is filed as cell-based. Particulars: for lymphocyte proliferation in response to Ni in the presence of inhibitor / lymphocyte proliferation to Ni combined with inhibitor compared to media control: metal-reactive individuals' lymphocytes, 6 days; for lymphocyte proliferation in response to Ni in the presence of inhibitor: compared with Ni challenge without inhibitor; for lymphocyte proliferation to Ni combined with inhibitor compared to media control: versus media challenge; for lymphocyte proliferation, mean response to Ni: Ni alone. Here is the method:
De-identified human peripheral blood mononuclear cells were isolated from 30 mL of peripheral blood using density gradient separation (Ficoll-isopaque, Pharmacia, Piscataway, N.J.). Ficoll gradient separated mononuclear cells are generally comprised of 85-95% lymphocytes with 5-13% monocytes and <0.1% dendritic cells with limited contamination (i.e., <5% erythrocytes and <3% granulocytes). Collected PBMCs (white buffy coat) were washed in sterile 1×PBS and resuspended in RPMI-1640 medium with 10% autologous serum and cultured with either no metal (plain media) as a negative control, PHA as a positive control, or with soluble nickel (NiCl2) or cobalt (CoCl2) at 37° C. and […] for 6 days. At day 5 of cell culture, ^3H-thymidine was added. At day 6, T-cell proliferation was assessed via ^3H-thymidine incorporation that was determined using a beta scintillation counter.
as §1, §2
(Incorporation of labelled thymidine or its analogues reports DNA synthesis.)

The subject of data set [4] is metal-sensitized C57BL/6 mice. The data set can be described thus: In vivo delayed type hypersensitivity (DTH) to orthopedic implant metal(s): paw inflammation by digital caliber. As to conditions: day 14, no treatment, p<0.0001 vs vehicle group. Here is the method:
DTH responses comprise two phases: (1) sensitization and (2) effector phase. […] Ashrin et al., J. Immunol. 192(9):4025-4031 (2014); Sato et al., Clin. Exp. Allergy 37(5):743-751 (2007). […] (2) Effector phase to implant metal(s): Re-exposure to the metal allergen leads to DTH reaction during the effector phase. Therefore, on day 12, a 50 μL mixture of either sterile 1×PBS (control group) or NiCl2 (metal-sensitized group) with an equivalent volume of CFA was injected subcutaneously on top of the right paw. DTH was determined 48 h post re-exposure to metal allergen (day 14) by measuring changes in paw inflammation using a digital caliber (blinded assessment) and the induced difference was recorded. Each group consisted of 3-5 mice and experiments were performed at least three independent times.
Anti-mouse IL-1R1: A set of metal-sensitized C57BL/6 female mice received local paw administration on day 12 with 200 μg of anti-mouse IL-1R1 (for local in vivo blocking of IL-1R during the effector phase of metal-DTH responses) (clone JAMA-147; BioLegend, San Diego, Calif.) in concert with NiCl2 and CFA. Rogers et al., Proc. Natl. Acad. Sci. USA 89(3):1011-1015 (1992); Rogers et al., J. Immunol. 153(5):2093-2101 (1994). […]

In data set [5] the test system is IL-17A/F. The data set can be described thus: Sandwich ELISA for mouse IL-17A/F in supernatants of metal-challenged CD4+ T cells. It is filed as cell-based. As to conditions: CD4+ T cells from metal-sensitized Caspase-1−/− mice. Here is the method:
(§4) In addition to determination of paw swelling after recall with NiCl2, proliferation in vitro of lymphocytes was measured. Spleens were obtained aseptically 48 h after challenge and splenic effector CD4+ T cells were isolated using negative selection kit following manufacturer's protocol (EasySep Mouse CD4+ T cell isolation kit; 2.5×10^5 cells/per well in 96 well flat bottom plates). Splenic CD4+ T cells were co-incubated with syngeneic mitomycin-C treated naïve splenic (2.5×10^5 cells/per well) antigen-presenting cells (APCs) with or without 0.0001 mM or 0.001 mM of soluble metal ions NiCl2 or CoCl2, and 0.01 mg/mL phytohemagglutinin (PHA) as a positive control, in RPMI 1640 media containing 10% fetal bovine serum (FBS; Hyclone Laboratories, Inc.) at 37° C. and […] for 4 days. Syngeneic naïve spleen APCs were incubated at 5×10^6 cells/mL with 25 μg/mL of mitomycin-C for 30 minutes to inactivate proliferation. At day 3 of cell culture, ^3H-thymidine was added. At day 4, T-cell proliferation was assessed via ^3H-thymidine incorporation that was determined using a beta scintillation counter.
(§5) Sandwich ELISAs for mouse IL-17A/F and IFN-γ (R&D Systems Inc., Minneapolis, Minn.) were used to detect cytokine production in both non-sensitized and metal-sensitized female mouse spleens and isolated CD4+ T-cells that were harvested 48 h post paw re-challenge to metal allergen (day 14). […]

Data set [6] has as its system IFN-γ. The experiment in a line: Sandwich ELISA for mouse IFN-γ in supernatants of metal-challenged CD4+ T cells. It is filed as cell-based. As to conditions: CD4+ T cells from metal-sensitized Caspase-1−/− mice. Here is the method:
as §4, §5

*: point of attachment. Cbz = O=C(OCc1ccccc1)*; CH2F = FC*

With `CC(C)(O)c1coc(S(=O)(=O)NC(=O)Nc2c3c(cc4c2CCC4)CCC3)c1` [MCC950, reference compound], the “IL-17A/F production to metal challenge in the presence of inhibitor” value (“IL-17A/F production … of inhibitor” below) with IL-17A/F [1] is “significantly suppressed”. In addition, the “IFN-γ production to metal challenge in the presence of inhibitor” value in the data set on IFN-γ [2] was “not affected”. Also, in data set [3], the “lymphocyte proliferation in response to Ni in the presence of inhibitor” value (“lymphocyte proliferation … of inhibitor” below) is “only a weak proliferative response” and the “lymphocyte proliferation to Ni combined with inhibitor compared to media control” value is “significant increases in cell proliferation”.

Turning to `[Cl][Ni][Cl]` [Ni, Nickel (II) chloride], in data set [4], the “mean paw inflammation upon challenge with Ni” value is reported as 6.195 mm. Moreover, the “lymphocyte proliferation, mean response to Ni” value in data set [3] (other groups of individuals (FIGS. 9A, 9B, 10A)) was “approximately 4,000 cpm”; in data set [3] (subset of individuals tested with anti-IL-17A (n=11)), 10,600 cpm. For the same molecule, the “IL-17A/F mean secretion in response to Ni” value in the data set with IL-17A/F [5] is given as 131.5 pg/mL. For the same molecule, in the data set on IFN-γ [6], the “IFN-γ mean secretion in response to Ni” value is given as 956.6 pg/mL.

Regarding “Cbz-WEHD-CH2F [Caspase-1 inhibitor, reference compound]”, the “IL-17A/F production … of inhibitor” value in the data set on IL-17A/F [1] is “significantly suppressed”. The “IFN-γ production to metal challenge in the presence of inhibitor” value with IFN-γ [2] is “significantly suppressed both IL-17 and IFN-γ production”. Further, in data set [3], the “lymphocyte proliferation … of inhibitor” value is recorded as “significantly reduced lymphocyte reactivity” and the “lymphocyte proliferation to Ni combined with inhibitor compared to media control” value is “significant increases in cell proliferation”.

For “IL-1Ra: recombinant human IL-1Ra (R&D Systems), IL-1 receptor antagonist; b178 equates IL-1Ra with ANAKINRA”, the “IL-17A/F production … of inhibitor” value in the data set on IL-17A/F [1] is listed as “significantly suppressed”. In addition, the “relative effectiveness in mitigating lymphocyte metal reactivity (comparison among inhibitors)” value in data set [3] (comparison of MCC950, Caspase-1 inhibitor, IL-1Ra, anti-IL-17A) was “most effective inflammasome based inhibitor”. Also, in data set [3], the “lymphocyte proliferation … of inhibitor” value is “significantly reduced lymphocyte proliferative responses” and the “lymphocyte proliferation to Ni combined with inhibitor compared to media control” value is “non-significantly different compared to media challenge”.
